Test system: subjects with schizophrenia
Test: Change in PANSS total score by rs6435681 (ErbB4) genotype, pooled paliperidone arms of clinical trial Nos. 1-4
Type: in vivo, human
Details: trials 1-4; for mean reduction in PANSS total score: baseline to end of study
Experimental: The paliperidone treated arms of clinical trial Nos. 1-4, were pooled and examined for genetic association. The trial Nos. 1-3 were paliperidone ER phase III studies and trial No. 4 was a paliperidone palmitate phase II/III study. To confirm results of the initial genetic association, additional paliperidone treated cohorts, including paliperidone palmitate phase III clinical trial Nos 5-8 and paliperidone ER phase III/IV trial Nos. 9 and 10 were evaluated. The results were further examined with the placebo arms of trial Nos. 1-4 and 6-10, the olanzapine arms of trial Nos. 1-3 and 11, the quetiapine arm of trial No. 9, and the Risperdal Consta arm of the trials No. 5 and 11.
Trial Nos. 1 to 3 were randomized, double-blind, placebo and active controlled phase III trials that were designed to evaluate efficacy and safety of paliperidone-ER in the acute treatment of subjects with schizophrenia. Schizophrenic patients experiencing active symptoms, with Positive and Negative […] (PANSS) score=70-120, were enrolled and randomized to different treatment groups. The patients received paliperidone-ER of 3 mg, 6 mg, 9 mg, 12 mg, or 15 mg, olanzapine of 10 mg or placebo tablet once daily for 6 weeks. Primary efficacy variable/Primary Time point was changed in the total PANSS score from baseline to endpoint. The baseline value was the measurement from the last visit prior to or including the first day of dosing with double-blind study medication, and the endpoint value was the measurement at the end of the double-blind phase or the last post-baseline observation during the double-blind phase. Detailed clinical study design and outcomes of trial Nos. 1-3 were described elsewhere (Marder et al., Biol Psychiatry. 2007, 62:1363-70; Davidson et al., Schizophr Res. 2007, 93:117-30; Kane et al., Schizophr Res. 2007, 90:147-61. Epub).
Trial No. 4 was a randomized, double-blind, placebo-controlled phase II/III study to evaluate the efficacy and safety of long-acting injections of paliperidone palmitate at fixed doses of 50 and 100 mg equivalent in subjects with schizophrenia. Subjects were required to have a total PANSS score between 70 and 120 at Screening and between 60 and 120 on Day 1 prior to the start of double-blind treatment. The primary efficacy variable was the change in total PANSS score from the start of the double-blinded treatment period to the last post-randomization assessment in the double-blinded treatment period.
DNA collected from subjects who consented to the optional pharmacogenomic component of the above clinical trials were analyzed in the genetic study. Briefly, blood samples were collected from subjects and extracted for genomic DNA. […]

SMILES: Cc1nc2n(c(=O)c1CCN1CCC(c3noc4cc(F)ccc34)CC1)CCCC2O (stereo not shown) [Paliperidone]
- mean reduction in PANSS total score (patients with AA genotype at rs6435681 (N=25)): 0.6
- patients displaying a 30% or higher reduction in PANSS total score from baseline (patients with AA genotype): 8%
- mean reduction in PANSS total score (patients with GG or GA genotype at rs6435681 (N=659)): 17.8
- patients displaying a 30% or higher reduction in PANSS total score from baseline (patients with GG/GA genotype): Twenty-nine

— patent publication US20100144781A1, “METHODS OF TREATING PSYCHOSIS AND SCHIZOPHRENIA BASED ON POLYMORPHISMS IN THE ERBB4 GENE” (priority 2008, published 2010)
